{
  "source": "paper PMC8909834",
  "about": "“An Orally Bioavailable and Highly Efficacious Inhibitor of CDK9/FLT3 for the Treatment of Acute Myeloid Leukemia” (Cancers, 2022)",
  "test_in_all_cases": "Kinase Hotspot radiolabel assay",
  "assay_type_in_all_cases": "biochemical",
  "details_in_all_cases": "read-out: % Residual Activity",
  "key": {"FRK/PTK5": {"biological_target": "T1, FRK/PTK5 (Homo sapiens, UniProt P42685)", "T1 construct": "purchased Reaction Biology Corporation (Kinase HotSpot)", "outline": "(§1)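 Profiled at 1 µM compound within a 369-kinase panel using a radiolabel Hotspot format. Ki values were then determined for kinases showing greater than 90% inhibition.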"}, "GSK3a": {"biological_target": "T2, GSK3a (Homo sapiens, UniProt P49840)", "T2 construct": "purchased Reaction Biology Corporation (Kinase HotSpot)", "outline": "as §1"}, "PLK1": {"biological_target": "T3, PLK1 (Homo sapiens, UniProt P53350)", "T3 construct": "purchased Reaction Biology Corporation (Kinase HotSpot)", "outline": "as §1"}, "MKK6": {"biological_target": "T4, MKK6 (Homo sapiens, UniProt P52564)", "T4 construct": "purchased Reaction Biology Corporation (Kinase HotSpot)", "outline": "as §1"}, "PAK6": {"biological_target": "T5, PAK6 (Homo sapiens, UniProt Q9NQU5)", "T5 construct": "purchased Reaction Biology Corporation (Kinase HotSpot)", "outline": "as §1"}, "CK1a1L": {"biological_target": "T6, CK1a1L (Homo sapiens, UniProt Q8N752)", "T6 construct": "purchased Reaction Biology Corporation (Kinase HotSpot)", "outline": "as §1"}, "BLK": {"biological_target": "T7, BLK (Homo sapiens, UniProt P51451)", "T7 construct": "purchased Reaction Biology Corporation (Kinase HotSpot)", "outline": "as §1"}, "PDGFRa": {"biological_target": "T8, PDGFRa (Homo sapiens, UniProt P16234)", "T8 construct": "purchased Reaction Biology Corporation (Kinase HotSpot)", "outline": "as §1"}, "PDGFRb": {"biological_target": "T9, PDGFRb (Homo sapiens, UniProt P09619)", "T9 construct": "purchased Reaction Biology Corporation (Kinase HotSpot)", "outline": "as §1"}, "CDK1/cyclin B": {"biological_target": "T10, CDK1/cyclin B (Homo sapiens, UniProt P06493)", "T10 construct": "purchased Reaction Biology Corporation (Kinase HotSpot)", "outline": "as §1"}, "RIPK5": {"biological_target": "T11, RIPK5 (Homo sapiens, UniProt Q6XUX3)", "T11 construct": "purchased Reaction Biology Corporation (Kinase HotSpot)", "T11 sequence (Q6XUX3 whole entry)": "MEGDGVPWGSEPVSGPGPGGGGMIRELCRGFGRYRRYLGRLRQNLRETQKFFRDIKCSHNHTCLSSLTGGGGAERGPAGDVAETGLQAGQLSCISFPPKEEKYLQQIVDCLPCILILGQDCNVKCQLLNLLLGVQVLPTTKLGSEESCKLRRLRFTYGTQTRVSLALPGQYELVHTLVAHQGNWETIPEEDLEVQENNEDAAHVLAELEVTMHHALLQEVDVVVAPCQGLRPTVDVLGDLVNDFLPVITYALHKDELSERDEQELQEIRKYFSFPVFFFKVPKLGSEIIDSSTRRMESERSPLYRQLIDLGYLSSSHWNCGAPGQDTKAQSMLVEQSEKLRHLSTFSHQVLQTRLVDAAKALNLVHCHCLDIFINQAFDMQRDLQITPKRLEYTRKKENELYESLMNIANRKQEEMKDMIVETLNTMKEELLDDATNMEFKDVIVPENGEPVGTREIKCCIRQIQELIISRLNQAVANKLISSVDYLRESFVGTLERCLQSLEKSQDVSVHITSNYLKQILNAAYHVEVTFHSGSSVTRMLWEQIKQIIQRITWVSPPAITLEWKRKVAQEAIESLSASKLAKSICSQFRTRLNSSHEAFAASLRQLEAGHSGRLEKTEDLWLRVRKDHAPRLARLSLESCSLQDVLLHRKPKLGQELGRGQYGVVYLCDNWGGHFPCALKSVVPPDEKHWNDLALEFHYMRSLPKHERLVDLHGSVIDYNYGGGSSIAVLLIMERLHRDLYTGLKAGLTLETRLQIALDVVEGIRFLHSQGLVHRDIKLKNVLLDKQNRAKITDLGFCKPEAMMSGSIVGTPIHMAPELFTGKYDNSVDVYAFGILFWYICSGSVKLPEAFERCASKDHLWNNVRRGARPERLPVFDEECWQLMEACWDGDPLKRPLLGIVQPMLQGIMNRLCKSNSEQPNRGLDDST", "outline": "as §1"}, "c-MET": {"biological_target": "T12, c-MET (Homo sapiens, UniProt P08581)", "T12 construct": "purchased Reaction Biology Corporation (Kinase HotSpot)", "outline": "as §1"}, "MARK2/PAR-1Ba": {"biological_target": "T13, MARK2/PAR-1Ba (Homo sapiens, UniProt Q7KZI7)", "T13 construct": "purchased Reaction Biology Corporation (Kinase HotSpot)", "outline": "as §1"}, "CDK14/cyclin Y (PFTK1)": {"biological_target": "T14, CDK14/cyclin Y (PFTK1) (Homo sapiens, UniProt O94921)", "T14 construct": "purchased Reaction Biology Corporation (Kinase HotSpot)", "outline": "as §1"}, "PIM3": {"biological_target": "T15, PIM3 (Homo sapiens, UniProt Q86V86)", "T15 construct": "purchased Reaction Biology Corporation (Kinase HotSpot)", "outline": "as §1"}, "CAMK4": {"biological_target": "T16, CAMK4 (Homo sapiens, UniProt Q16566)", "T16 construct": "purchased Reaction Biology Corporation (Kinase HotSpot)", "outline": "as §1"}, "MEK5": {"biological_target": "T17, MEK5 (Homo sapiens, UniProt Q13163)", "T17 construct": "purchased Reaction Biology Corporation (Kinase HotSpot)", "outline": "as §1"}, "FGFR4": {"biological_target": "T18, FGFR4 (Homo sapiens, UniProt P22455)", "T18 construct": "purchased Reaction Biology Corporation (Kinase HotSpot)", "T18 sequence (P22455 22-802)": "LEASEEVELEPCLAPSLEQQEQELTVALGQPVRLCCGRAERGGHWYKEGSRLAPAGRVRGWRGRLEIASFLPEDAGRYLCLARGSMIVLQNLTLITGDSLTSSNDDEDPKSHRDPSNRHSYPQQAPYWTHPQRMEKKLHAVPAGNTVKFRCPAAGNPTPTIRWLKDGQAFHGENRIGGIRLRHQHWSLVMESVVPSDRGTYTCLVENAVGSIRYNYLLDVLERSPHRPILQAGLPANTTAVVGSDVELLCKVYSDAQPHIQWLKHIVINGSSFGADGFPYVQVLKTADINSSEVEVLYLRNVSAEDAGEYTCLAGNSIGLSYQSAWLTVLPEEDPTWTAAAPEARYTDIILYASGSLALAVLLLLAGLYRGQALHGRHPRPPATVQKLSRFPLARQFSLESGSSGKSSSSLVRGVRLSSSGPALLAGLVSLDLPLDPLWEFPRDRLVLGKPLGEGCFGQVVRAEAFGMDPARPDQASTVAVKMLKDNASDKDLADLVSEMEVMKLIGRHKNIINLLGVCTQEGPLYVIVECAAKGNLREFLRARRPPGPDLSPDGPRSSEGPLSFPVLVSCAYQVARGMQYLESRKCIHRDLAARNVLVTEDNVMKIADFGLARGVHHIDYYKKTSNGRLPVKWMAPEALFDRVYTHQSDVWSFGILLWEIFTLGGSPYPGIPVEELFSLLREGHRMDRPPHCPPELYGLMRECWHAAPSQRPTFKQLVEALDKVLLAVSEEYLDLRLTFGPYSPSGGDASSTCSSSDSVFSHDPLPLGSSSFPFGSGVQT", "outline": "as §1"}, "YES/YES1": {"biological_target": "T19, YES/YES1 (Homo sapiens, UniProt P07947)", "T19 construct": "purchased Reaction Biology Corporation (Kinase HotSpot)", "outline": "as §1"}, "CDK18/cyclin Y (PCTK3)": {"biological_target": "T20, CDK18/cyclin Y (PCTK3) (Homo sapiens, UniProt Q07002)", "T20 construct": "purchased Reaction Biology Corporation (Kinase HotSpot)", "outline": "as §1"}, "WNK2": {"biological_target": "T21, WNK2 (Homo sapiens, UniProt Q9Y3S1)", "T21 construct": "purchased Reaction Biology Corporation (Kinase HotSpot)", "outline": "as §1"}, "CAMK1d": {"biological_target": "T22, CAMK1d (Homo sapiens, UniProt Q8IU85)", "T22 construct": "purchased Reaction Biology Corporation (Kinase HotSpot)", "outline": "as §1"}, "TBK1": {"biological_target": "T23, TBK1 (Homo sapiens, UniProt Q9UHD2)", "T23 construct": "purchased Reaction Biology Corporation (Kinase HotSpot)", "outline": "as §1"}, "STK38L/NDR2": {"biological_target": "T24, STK38L/NDR2 (Homo sapiens, UniProt Q9Y2H1)", "T24 construct": "purchased Reaction Biology Corporation (Kinase HotSpot)", "outline": "as §1"}, "HIPK2": {"biological_target": "T25, HIPK2 (Homo sapiens, UniProt Q9H2X6)", "T25 construct": "purchased Reaction Biology Corporation (Kinase HotSpot)", "T25 sequence (Q9H2X6 whole entry)": "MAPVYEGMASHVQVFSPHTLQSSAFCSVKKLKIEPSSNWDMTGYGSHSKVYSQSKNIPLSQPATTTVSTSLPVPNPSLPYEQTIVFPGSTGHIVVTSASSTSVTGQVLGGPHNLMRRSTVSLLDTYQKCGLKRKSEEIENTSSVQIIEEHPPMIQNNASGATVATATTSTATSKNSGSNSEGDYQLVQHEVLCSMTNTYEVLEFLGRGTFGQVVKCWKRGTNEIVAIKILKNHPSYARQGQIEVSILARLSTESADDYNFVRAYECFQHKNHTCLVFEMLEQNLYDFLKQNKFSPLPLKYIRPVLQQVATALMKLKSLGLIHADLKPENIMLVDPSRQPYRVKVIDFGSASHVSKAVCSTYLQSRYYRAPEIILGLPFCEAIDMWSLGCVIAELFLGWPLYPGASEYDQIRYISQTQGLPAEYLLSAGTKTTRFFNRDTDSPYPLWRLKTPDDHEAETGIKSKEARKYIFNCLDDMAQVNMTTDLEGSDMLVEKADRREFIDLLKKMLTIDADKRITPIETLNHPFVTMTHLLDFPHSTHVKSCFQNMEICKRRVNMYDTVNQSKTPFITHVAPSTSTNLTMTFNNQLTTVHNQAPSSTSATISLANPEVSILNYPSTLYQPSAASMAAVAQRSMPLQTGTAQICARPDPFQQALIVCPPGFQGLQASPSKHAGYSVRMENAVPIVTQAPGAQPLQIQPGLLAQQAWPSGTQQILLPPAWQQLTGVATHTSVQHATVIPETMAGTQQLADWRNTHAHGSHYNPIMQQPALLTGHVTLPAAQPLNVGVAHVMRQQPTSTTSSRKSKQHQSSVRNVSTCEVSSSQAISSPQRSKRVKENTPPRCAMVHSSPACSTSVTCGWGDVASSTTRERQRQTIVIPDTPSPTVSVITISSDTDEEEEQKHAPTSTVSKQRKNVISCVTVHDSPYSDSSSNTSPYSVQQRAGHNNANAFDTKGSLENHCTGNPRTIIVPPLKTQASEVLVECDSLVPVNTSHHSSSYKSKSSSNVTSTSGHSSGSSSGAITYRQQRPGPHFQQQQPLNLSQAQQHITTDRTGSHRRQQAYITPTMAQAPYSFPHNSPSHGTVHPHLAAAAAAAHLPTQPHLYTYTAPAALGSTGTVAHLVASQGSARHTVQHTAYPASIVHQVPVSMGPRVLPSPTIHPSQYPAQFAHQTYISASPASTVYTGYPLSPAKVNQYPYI", "outline": "as §1"}, "DYRK1/DYRK1A": {"biological_target": "T26, DYRK1/DYRK1A (Homo sapiens, UniProt Q13627)", "T26 construct": "purchased Reaction Biology Corporation (Kinase HotSpot)", "outline": "as §1"}, "CDK6/cyclin D1": {"biological_target": "T27, CDK6/cyclin D1 (Homo sapiens, UniProt Q00534)", "T27 construct": "purchased Reaction Biology Corporation (Kinase HotSpot)", "T27 sequence (Q00534 whole entry)": "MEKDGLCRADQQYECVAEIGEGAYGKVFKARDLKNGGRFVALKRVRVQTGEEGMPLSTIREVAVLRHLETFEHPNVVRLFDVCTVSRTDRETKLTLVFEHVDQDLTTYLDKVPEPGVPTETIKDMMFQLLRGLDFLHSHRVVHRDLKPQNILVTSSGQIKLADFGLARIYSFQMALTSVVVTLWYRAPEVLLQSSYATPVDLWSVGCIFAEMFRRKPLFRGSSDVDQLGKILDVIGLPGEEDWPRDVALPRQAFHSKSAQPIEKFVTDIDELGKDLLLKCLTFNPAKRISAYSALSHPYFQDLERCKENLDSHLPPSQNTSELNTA", "T27 sequence (P24385 whole entry partner)": "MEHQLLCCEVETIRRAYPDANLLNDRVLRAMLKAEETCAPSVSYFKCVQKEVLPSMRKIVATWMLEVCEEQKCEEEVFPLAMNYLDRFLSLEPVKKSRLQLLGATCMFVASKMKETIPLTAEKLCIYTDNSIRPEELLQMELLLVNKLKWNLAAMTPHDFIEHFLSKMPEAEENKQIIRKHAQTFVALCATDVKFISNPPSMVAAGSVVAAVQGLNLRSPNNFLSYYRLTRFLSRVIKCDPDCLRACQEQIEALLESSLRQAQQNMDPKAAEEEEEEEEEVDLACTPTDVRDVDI", "outline": "as §1"}, "MINK/MINK1": {"biological_target": "T28, MINK/MINK1 (Homo sapiens, UniProt Q8N4C8)", "T28 construct": "purchased Reaction Biology Corporation (Kinase HotSpot)", "T28 sequence (Q8N4C8 whole entry)": "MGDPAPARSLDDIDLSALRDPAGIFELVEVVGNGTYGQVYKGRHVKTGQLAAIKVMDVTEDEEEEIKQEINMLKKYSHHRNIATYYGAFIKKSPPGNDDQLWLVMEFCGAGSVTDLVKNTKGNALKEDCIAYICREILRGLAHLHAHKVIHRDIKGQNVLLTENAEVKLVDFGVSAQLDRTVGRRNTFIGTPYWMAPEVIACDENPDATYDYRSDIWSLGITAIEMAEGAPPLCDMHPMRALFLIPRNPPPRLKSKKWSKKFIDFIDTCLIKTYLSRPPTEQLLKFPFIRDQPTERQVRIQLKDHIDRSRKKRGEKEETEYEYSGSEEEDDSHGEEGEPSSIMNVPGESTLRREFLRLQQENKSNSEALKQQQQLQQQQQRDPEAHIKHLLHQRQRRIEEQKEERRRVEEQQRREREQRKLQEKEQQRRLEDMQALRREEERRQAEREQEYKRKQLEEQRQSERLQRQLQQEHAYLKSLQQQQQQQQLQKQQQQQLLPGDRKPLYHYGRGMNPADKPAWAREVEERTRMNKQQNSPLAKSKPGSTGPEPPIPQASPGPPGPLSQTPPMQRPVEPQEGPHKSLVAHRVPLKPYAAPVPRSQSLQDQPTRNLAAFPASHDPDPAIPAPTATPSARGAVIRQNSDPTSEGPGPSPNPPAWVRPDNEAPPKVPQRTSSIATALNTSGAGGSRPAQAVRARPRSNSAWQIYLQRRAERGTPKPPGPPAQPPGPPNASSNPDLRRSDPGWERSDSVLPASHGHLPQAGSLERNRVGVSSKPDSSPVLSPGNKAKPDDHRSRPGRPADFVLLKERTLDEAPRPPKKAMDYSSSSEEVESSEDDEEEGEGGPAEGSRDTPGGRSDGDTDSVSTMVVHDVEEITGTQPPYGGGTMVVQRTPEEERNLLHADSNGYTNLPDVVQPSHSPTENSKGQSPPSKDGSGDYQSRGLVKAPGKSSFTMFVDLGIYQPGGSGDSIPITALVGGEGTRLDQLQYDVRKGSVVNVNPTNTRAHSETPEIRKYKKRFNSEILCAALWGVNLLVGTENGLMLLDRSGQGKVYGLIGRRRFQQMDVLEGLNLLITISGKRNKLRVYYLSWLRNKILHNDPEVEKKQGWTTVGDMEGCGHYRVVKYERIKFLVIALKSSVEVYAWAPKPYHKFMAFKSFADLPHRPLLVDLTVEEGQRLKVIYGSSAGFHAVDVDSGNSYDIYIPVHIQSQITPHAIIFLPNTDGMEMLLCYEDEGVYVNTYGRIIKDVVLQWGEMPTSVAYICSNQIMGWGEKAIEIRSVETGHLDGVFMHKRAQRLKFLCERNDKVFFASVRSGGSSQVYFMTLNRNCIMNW", "outline": "as §1"}, "LOK/STK10": {"biological_target": "T29, LOK/STK10 (Homo sapiens, UniProt O94804)", "T29 construct": "purchased Reaction Biology Corporation (Kinase HotSpot)", "outline": "as §1"}, "CDK2/cyclin E": {"biological_target": "T30, CDK2/cyclin E (Homo sapiens, UniProt P24941)", "T30 construct": "purchased Reaction Biology Corporation (Kinase HotSpot)", "outline": "as §1"}},
  "data": [
    {"smiles": "Cc1cnc(N[C@H]2CC[C@H](N)CC2)nc1-c1cnc2ccc(-c3ccccc3)cn12", "note": "[CDDD11-8]", "values": [
      {"measurement": "remaining activity at 1 µM", "setting": "FRK/PTK5", "value": 97.1, "unit": "%"},
      {"measurement": "remaining activity at 1 µM", "setting": "GSK3a", "value": 70.1, "unit": "%"},
      {"measurement": "remaining activity at 1 µM", "setting": "PLK1", "value": 97.3, "unit": "%"},
      {"measurement": "remaining activity at 1 µM", "setting": "MKK6", "value": 95.7, "unit": "%"},
      {"measurement": "remaining activity at 1 µM", "setting": "PAK6", "value": 96.6, "unit": "%"},
      {"measurement": "remaining activity at 1 µM", "setting": "CK1a1L", "value": 90, "unit": "%"},
      {"measurement": "remaining activity at 1 µM", "setting": "BLK", "value": 47.2, "unit": "%"},
      {"measurement": "remaining activity at 1 µM", "setting": "PDGFRa", "value": 49.3, "unit": "%"},
      {"measurement": "remaining activity at 1 µM", "setting": "PDGFRb", "value": 40.2, "unit": "%"},
      {"measurement": "remaining activity at 1 µM", "setting": "CDK1/cyclin B", "value": 69.5, "unit": "%"},
      {"measurement": "remaining activity at 1 µM", "setting": "RIPK5", "value": 93, "unit": "%"},
      {"measurement": "remaining activity at 1 µM", "setting": "c-MET", "value": 103, "unit": "%"},
      {"measurement": "remaining activity at 1 µM", "setting": "MARK2/PAR-1Ba", "value": 23.1, "unit": "%"},
      {"measurement": "remaining activity at 1 µM", "setting": "CDK14/cyclin Y (PFTK1)", "value": 68.8, "unit": "%"},
      {"measurement": "remaining activity at 1 µM", "setting": "PIM3", "value": 72.6, "unit": "%"},
      {"measurement": "remaining activity at 1 µM", "setting": "CAMK4", "value": 97.3, "unit": "%"},
      {"measurement": "remaining activity at 1 µM", "setting": "MEK5", "value": 99.6, "unit": "%"},
      {"measurement": "remaining activity at 1 µM", "setting": "FGFR4", "value": 104, "unit": "%"},
      {"measurement": "remaining activity at 1 µM", "setting": "YES/YES1", "value": 70, "unit": "%"},
      {"measurement": "remaining activity at 1 µM", "setting": "CDK18/cyclin Y (PCTK3)", "value": 100, "unit": "%"},
      {"measurement": "remaining activity at 1 µM", "setting": "WNK2", "value": 94.5, "unit": "%"},
      {"measurement": "remaining activity at 1 µM", "setting": "CAMK1d", "value": 87.1, "unit": "%"},
      {"measurement": "remaining activity at 1 µM", "setting": "TBK1", "value": 94.6, "unit": "%"},
      {"measurement": "remaining activity at 1 µM", "setting": "STK38L/NDR2", "value": 96.7, "unit": "%"},
      {"measurement": "remaining activity at 1 µM", "setting": "HIPK2", "value": 104, "unit": "%"},
      {"measurement": "remaining activity at 1 µM", "setting": "DYRK1/DYRK1A", "value": 63.9, "unit": "%"},
      {"measurement": "remaining activity at 1 µM", "setting": "CDK6/cyclin D1", "value": 80.7, "unit": "%"},
      {"measurement": "remaining activity at 1 µM", "setting": "MINK/MINK1", "value": 8.86, "unit": "%"},
      {"measurement": "remaining activity at 1 µM", "setting": "LOK/STK10", "value": 55.8, "unit": "%"},
      {"measurement": "remaining activity at 1 µM", "setting": "CDK2/cyclin E", "value": 55.6, "unit": "%"}
    ]}
  ]
}
